The source of these data is PubChem BioAssay (NCI).

Test systems include M14 melanoma; SNB-19 CNS; SK-MEL-2 melanoma; TK-10 renal; NCI/ADR-RES ovarian; NCI-H226 lung; HCT-116 colon; OVCAR-4 ovarian; PC-3 prostate; A498 renal.
Common to all, as to experiment: growth of human tumour cells (NCI), 48 h

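Grown in 96-well plates, cells were treated for 48 hours with each compound at five concentrations. Insufficient inhibition: endpoint recorded as highest concentration tested. Here, GI50 denotes the concentration required for 50% inhibition of growth. TGI denotes the concentration required for complete inhibition of growth.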

Consider `N#CC(C#N)=Cc1ccc(-c2ccc(-c3nc4ccccc4o3)cc2)o1`, for which the GI50 in the assay with M14 melanoma is 77.4 µM; in the assay with SNB-19 CNS it was over 100 µM; with SK-MEL-2 melanoma, over 100 µM; in the assay on TK-10 renal it was 23.7 µM; with NCI/ADR-RES ovarian it was 20.8 µM; in the assay on NCI-H226 lung, 21 µM. For the same compound, the GI50 is 18.2 µM in the assay on HCT-116 colon, over 100 µM in the assay on OVCAR-4 ovarian, 29.5 µM with PC-3 prostate and 24.9 µM in the assay on A498 renal. For the same compound, the TGI in the assay with M14 melanoma is over 100 µM; in the assay on SNB-19 CNS, over 100 µM; in the assay on SK-MEL-2 melanoma it was over 100 µM; with TK-10 renal, 77.3 µM; with NCI/ADR-RES ovarian, 50.1 µM; in the assay on NCI-H226 lung, 99.7 µM. For the same compound, the TGI in the assay with HCT-116 colon was 42.3 µM; in the assay on OVCAR-4 ovarian, over 100 µM; with PC-3 prostate, over 100 µM; in the assay on A498 renal it was 70 µM.
Take `c1cnc2c(c1)Nc1cnncc1S2`: the TGI in the assay with M14 melanoma, in the assay on SNB-19 CNS, in the assay with SK-MEL-2 melanoma, in the assay with TK-10 renal, with NCI/ADR-RES ovarian and in the assay with NCI-H226 lung was over 100 µM each time. The TGI in the assay with HCT-116 colon, in the assay with OVCAR-4 ovarian, in the assay with PC-3 prostate and in the assay on A498 renal was over 100 µM throughout.
Consider `N#Cc1c(Oc2ccc(F)c(NC(=O)Cc3cccc(C(F)(F)F)c3)c2)ccc2nc(NC(=O)C3CC3)sc12`, for which the GI50 in the assay on M14 melanoma was 0.0275 µM; with SNB-19 CNS it was 0.828 µM; with SK-MEL-2 melanoma, 0.108 µM; in the assay on TK-10 renal, 1.86 µM; with NCI/ADR-RES ovarian, 1.28 µM; with NCI-H226 lung, 0.838 µM. Moreover, the GI50 with HCT-116 colon was 0.251 µM; in the assay with OVCAR-4 ovarian, 2.6 µM; in the assay on PC-3 prostate, 1.56 µM; in the assay on A498 renal, 0.224 µM. Further, the TGI in the assay with M14 melanoma is 2.95 µM; with SNB-19 CNS, over 100 µM; in the assay with SK-MEL-2 melanoma, 0.83 µM; in the assay with TK-10 renal it was over 100 µM; in the assay on NCI/ADR-RES ovarian, over 100 µM; in the assay with NCI-H226 lung, over 100 µM. Further, the TGI is over 100 µM in the assay on HCT-116 colon, over 100 µM in the assay with OVCAR-4 ovarian, over 100 µM in the assay on PC-3 prostate and 2.56 µM with A498 renal.
Take `O=[N+]([O-])c1ccc(-c2ccccc2)c([As](=O)(O)O)c1`: the GI50 with M14 melanoma is 26.6 µM; in the assay with SNB-19 CNS it was 18.7 µM; in the assay with SK-MEL-2 melanoma, 28.2 µM; in the assay on TK-10 renal, 17.5 µM; in the assay with NCI/ADR-RES ovarian, 22.6 µM; in the assay on NCI-H226 lung it was 18.5 µM. Also, the GI50 with HCT-116 colon was 10.9 µM; in the assay on OVCAR-4 ovarian, 14.6 µM; in the assay with PC-3 prostate it was 16.1 µM; in the assay with A498 renal it was 16.5 µM. The TGI was over 100 µM in the assay with M14 melanoma; over 100 µM in the assay on SNB-19 CNS; 62.8 µM with SK-MEL-2 melanoma; 38.5 µM with TK-10 renal; over 100 µM with NCI/ADR-RES ovarian; 69.4 µM with NCI-H226 lung. The TGI is 25.4 µM in the assay with HCT-116 colon, 52 µM in the assay with OVCAR-4 ovarian, over 100 µM with PC-3 prostate and 67 µM in the assay on A498 renal.
For the compound `CC(=O)OCC(=O)C1(O)C(C)CC2C3C=C(C)C4=Cc5c(cnn5-c5ccccc5)CC4(C)C3C(O)CC21C` (centres undefined), the GI50 with M14 melanoma was 1.76 µM; in the assay on SNB-19 CNS it was 2.31 µM; in the assay on SK-MEL-2 melanoma, 1.66 µM; with TK-10 renal it was 2.13 µM; in the assay on NCI/ADR-RES ovarian, 1.94 µM; in the assay on NCI-H226 lung, 2.16 µM. The GI50 was 1.45 µM in the assay on HCT-116 colon, 2.29 µM with OVCAR-4 ovarian, 1.69 µM in the assay with PC-3 prostate and 1.4 µM in the assay with A498 renal. For the same compound, the TGI amounted to 3.69 µM in the assay with M14 melanoma; 11.9 µM with SNB-19 CNS; 3.85 µM in the assay on SK-MEL-2 melanoma; 9.73 µM in the assay with TK-10 renal; 8.73 µM in the assay with NCI/ADR-RES ovarian; 11.2 µM in the assay with NCI-H226 lung. Besides, the TGI with HCT-116 colon turned out to be 3.12 µM; in the assay with OVCAR-4 ovarian it was 20 µM; in the assay on PC-3 prostate, 5.83 µM; in the assay on A498 renal, 3.94 µM.
`O=C(NO)c1cnc(N2CCN(S(=O)(=O)c3ccc4ccccc4c3)CC2)nc1`: the GI50 with M14 melanoma was 0.0468 µM; in the assay with SNB-19 CNS it was 0.238 µM; in the assay with SK-MEL-2 melanoma, 0.0345 µM; in the assay with TK-10 renal, 0.0432 µM; in the assay on NCI/ADR-RES ovarian, 0.0324 µM; with NCI-H226 lung, 0.157 µM. Besides, the GI50 with HCT-116 colon was 0.03 µM; in the assay with OVCAR-4 ovarian, 0.081 µM; in the assay with PC-3 prostate it was 0.078 µM; in the assay on A498 renal it was 0.0283 µM. In addition, the TGI stood at 5.75 µM in the assay on M14 melanoma; 11.8 µM in the assay with SNB-19 CNS; 0.214 µM with SK-MEL-2 melanoma; 0.454 µM in the assay with TK-10 renal; 2.55 µM with NCI-H226 lung; 10.1 µM with HCT-116 colon. Further, the TGI with OVCAR-4 ovarian was 23.6 µM; in the assay on PC-3 prostate, over 36 µM; in the assay on A498 renal, 0.22 µM.
On to `CC(C)N(C[C@H]1O[C@@H](n2cnc3c(N)ncnc32)[C@H](O)[C@@H]1O)C1CC(CCc2nc3ccc(C(C)(C)C)cc3[nH]2)C1` (some centres undefined), for which the GI50 is over 72.2 µM in the assay with M14 melanoma; over 100 µM with SNB-19 CNS; over 69 µM in the assay on SK-MEL-2 melanoma; over 100 µM in the assay with TK-10 renal; over 100 µM in the assay with NCI/ADR-RES ovarian; over 100 µM with NCI-H226 lung. Also, the GI50 is over 68 µM with HCT-116 colon, 74.1 µM with OVCAR-4 ovarian, 97.9 µM in the assay with PC-3 prostate and 29.6 µM with A498 renal. Besides, the TGI with M14 melanoma, in the assay with SNB-19 CNS, with SK-MEL-2 melanoma, with TK-10 renal, in the assay with NCI/ADR-RES ovarian and in the assay on NCI-H226 lung was over 100 µM throughout. Further, the TGI with HCT-116 colon, with OVCAR-4 ovarian, in the assay on PC-3 prostate and in the assay with A498 renal was over 100 µM throughout.
